Measured values published in the NIST ThermoML archive (doi:10.1016/j.fluid.2006.05.027).
± gives the expanded uncertainty stated by the source.

Conditions: 298.15 K, Liquid, Vibrating tube method

A mass density (7640 kPa) of 844 ± 0.7 kg/m3 and a mass density (10000 kPa) of 845.6 ± 0.7 kg/m3 were found for `C=C(C)C1CC=C(C)CC1` (configuration not stated) [1-methyl-4-(1-methylethenyl)cyclohexene] in this work.
